According to PubChem BioAssay AID1963975 (Molecular Pharmacology Branch, DTP, NCI, 2024):

Tested on: 624824-186-R-J2-PDC multicell spheroids, viability
Experiment: Anticancer human tumor 624824-186-R-J2-PDC patient-derived colon adenocarcinoma cell line growth inhibition [PI3K]
Conditions: for IC50: curve of first compound; for viability, T/C: stronger effect = lower value
Excerpt: Combinatorial screen of targeted agents with the PI3K inhibitors inavolisib, alpelisib, duvelisib, and copanlisib in multi-cell type tumor spheroids
A high-throughput screen of multi-cell type tumor spheroids was designed to identify active combinations of targeted small molecules and PI3K pathway inhibitors. Complex spheroids include a stromal component modeled by human endothelial cells (HUVEC) and fibroblasts modeled by human mesenchymal stem cells (MSCs). The concentration ranges selected for each drug and investigational agent were based upon clinically achievable concentrations if the clinical Cmax of the agent was known.
Compounds. The drugs and investigational agents: inavolisib (NSC800729), alpelisib (NSC765974), duvelisib (NSC772469), copanlisib (NSC816437), ipatasertib (NSC767898), afuresertib (NSC778305), talazoparib (NSC767125), sapanisertib (NSC764658), selumetinib (NSC741078), tovorafenib (DAY101, NSC766906), vemurafenib (NSC761431), ravoxertinib (NSC781343), sotorasib (NSC818433), MRTX1133 (NSC 836407), abemaciclib (NSC 768073), palbociclib (NSC758247), venetoclax (NSC 766270), SY5609 (NSC837396), enzalutamide (NSC755605), and darolutamide (NSC825331), were obtained from the National Cancer Institute (NCI) Developmental Therapeutics Program Chemical Repository. The FDA-approved anticancer drug set is available from the NCI Developmental Therapeutics Program. […] The stock solutions were prepared in dimethyl sulfoxide (DMSO, Sigma-Aldrich, St. Louis, MO, cat. D2650) at 800-fold the tested concentration and stored at -70 degrees C prior to their use. All drugs and investigational agents were tested over a range starting from a high concentration at or near the clinical Cmax and decreasing in half-log increments. If the clinical Cmax for an agent had not been determined, the highest concentration tested was 10 microM.
Cell Culture. All cells were maintained in an incubator at 37 degrees C and 5% CO2 with 95% humidity. The PDC lines were cultured according to standard operating procedures established by the NCI PDMR (https://pdmr.cancer.gov/sops/default.htm). All PDCs were thawed and cultured in Matrigel-coated flasks prepared with a working solution of 1X Ham's F-12 nutrient mix, without supplementation (Invitrogen, Waltham, MA, cat. 11765054), 100 U/mL penicillin-streptomycin (Invitrogen, cat. 15140122), and 2.5% Matrigel (Corning Inc., Corning, NY, cat. 354248) for the first three passages. The 354836-022-R-J1-PDC, 475296-252-R-J1-PDC, and 997726-040-R-J2-PDC lines were cultured in 6A media, which includes advanced DMEM/F-12 (Thermo Fisher Scientific, cat. 12634028), 10 mM HEPES (Thermo Fisher Scientific, cat. 15630080), 1X GlutaMAX supplement (Thermo Fisher Scientific, cat. 35050061), 0.1 mg/mL primocin (InvivoGen, San Diego, CA, cat. ant-pm-2), 10% defined fetal bovine serum, heat inactivated (HyClone Laboratories Inc., Logan, UT, cat. SH30070.03HI), 50% L-WRN conditioned media (ATCC, cat. CRL-3276), 1.25 mM N-Acetyl-L-cysteine (Sigma-Aldrich, cat. A9165), 10 mM nicotinamide (Sigma-Aldrich, cat. N0636), 1X B-27 supplement (Thermo Fisher Scientific, cat. 17504044), 1X N-2 supplement (Thermo Fisher Scientific, cat. 17502048), and 10 microM Y-27632 dihydrochloride (Tocris Bioscience, Bristol, United Kingdom, cat. 1254). The 624824-186-R-J2-PDC line was cultured in 6C/Colon 1B media, which includes all 6A media components plus 50 ng/mL human EGF recombinant protein (Thermo Fisher Scientific, cat. PHG0311). […]

[1] = second compound 0.00316 µM, first compound 0.0316 µM
[2] = second compound 0.00316 µM, first compound 0.1 µM
[3] = second compound 0.00316 µM, first compound 0.316 µM
[4] = second compound 0.00316 µM, first compound 1 µM
[5] = second compound 0.01 µM, first compound 0.0316 µM
[6] = second compound 0.01 µM, first compound 0.1 µM
[7] = second compound 0.01 µM, first compound 0.316 µM
[8] = second compound 0.01 µM, first compound 1 µM
[9] = second compound 0.0316 µM, first compound 0.0316 µM
[10] = second compound 0.0316 µM, first compound 0.1 µM
[11] = second compound 0.0316 µM, first compound 0.316 µM
[12] = second compound 0.0316 µM, first compound 1 µM
[13] = second compound 0.1 µM, first compound 0.0316 µM
[14] = second compound 0.1 µM, first compound 0.1 µM
[15] = second compound 0.1 µM, first compound 0.316 µM
[16] = second compound 0.1 µM, first compound 1 µM
[17] = second compound 0.316 µM, first compound 0.0316 µM
[18] = second compound 0.316 µM, first compound 0.1 µM
[19] = second compound 0.316 µM, first compound 0.316 µM
[20] = second compound 0.316 µM, first compound 1 µM
[21] = second compound 1 µM, first compound 0.0316 µM
[22] = second compound 1 µM, first compound 0.1 µM
[23] = second compound 1 µM, first compound 0.316 µM
[24] = second compound 1 µM, first compound 1 µM
[25] = second compound 0.00316 µM, first compound 0.00316 µM
[26] = second compound 0.00316 µM, first compound 0.01 µM
[27] = second compound 0.01 µM, first compound 0.00316 µM
[28] = second compound 0.01 µM, first compound 0.01 µM
[29] = second compound 0.0316 µM, first compound 0.00316 µM
[30] = second compound 0.0316 µM, first compound 0.01 µM
[31] = second compound 0.1 µM, first compound 0.00316 µM
[32] = second compound 0.1 µM, first compound 0.01 µM
[33] = second compound 0.316 µM, first compound 0.00316 µM
[34] = second compound 0.316 µM, first compound 0.01 µM
[35] = second compound 1 µM, first compound 0.00316 µM
[36] = second compound 1 µM, first compound 0.01 µM
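Further: spheroids exposed to agents for 7 days before viability read.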
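Wherever viability, T/C is given: 100% = DMSO vehicle treated spheroids.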

SMILES: CC(C)NCC(C(=O)N1CCN(c2ncnc3c2C(C)CC3O)CC1)c1ccc(Cl)cc1 (stereo unspecified) + CC(Nc1ccc2c(c1)OCCn1cc(N3C(=O)OCC3C(F)F)nc1-2)C(N)=O
- IC50 (second compound 0.00316 µM): > 10000 nM
- IC50 (second compound 0.01 µM): > 10000 nM
- IC50 (second compound 0.0316 µM): > 10000 nM
- IC50 (second compound 0.1 µM): > 10000 nM
- IC50 (second compound 0.316 µM): > 10000 nM
- IC50 (second compound 1 µM): > 10000 nM
- viability, T/C [1]: 113%
- viability, T/C [2]: 113%
- viability, T/C [3]: 113%
- viability, T/C [4]: 94.6%
- viability, T/C (second compound 0.00316 µM, first compound 3.16 µM): 94.9%
- viability, T/C (second compound 0.00316 µM, first compound 10 µM): 92.1%
- viability, T/C [5]: 88.3%
- viability, T/C [6]: 79.1%
- viability, T/C [7]: 72.1%
- viability, T/C [8]: 87%
- viability, T/C (second compound 0.01 µM, first compound 3.16 µM): 90.7%
- viability, T/C (second compound 0.01 µM, first compound 10 µM): 79.7%
- viability, T/C [9]: 98%
- viability, T/C [10]: 95.4%
- viability, T/C [11]: 82.7%
- viability, T/C [12]: 92.8%
- viability, T/C (second compound 0.0316 µM, first compound 3.16 µM): 95.4%
- viability, T/C (second compound 0.0316 µM, first compound 10 µM): 89.4%
- viability, T/C [13]: 85.7%
- viability, T/C [14]: 84.6%
- viability, T/C [15]: 68%
- viability, T/C [16]: 84.1%
- viability, T/C (second compound 0.1 µM, first compound 3.16 µM): 95.1%
- viability, T/C (second compound 0.1 µM, first compound 10 µM): 70.8%
- viability, T/C [17]: 89.8%
- viability, T/C [18]: 68.3%
- viability, T/C [19]: 86%
- viability, T/C [20]: 86.3%
- viability, T/C (second compound 0.316 µM, first compound 3.16 µM): 91.1%
- viability, T/C (second compound 0.316 µM, first compound 10 µM): 91.5%
- viability, T/C [21]: 95.4%
- viability, T/C [22]: 87.5%
- viability, T/C [23]: 94.1%
- viability, T/C [24]: 83.6%
- viability, T/C (second compound 1 µM, first compound 3.16 µM): 96.4%
- viability, T/C (second compound 1 µM, first compound 10 µM): 74.2%

SMILES: CCN1CCN(Cc2ccc(Nc3ncc(F)c(-c4cc(F)c5nc(C)n(C(C)C)c5c4)n3)nc2)CC1 + CC(Nc1ccc2c(c1)OCCn1cc(N3C(=O)OCC3C(F)F)nc1-2)C(N)=O
- IC50 (second compound 0.00316 µM): > 1000 nM
- IC50 (second compound 0.01 µM): > 1000 nM
- IC50 (second compound 0.0316 µM): > 1000 nM
- IC50 (second compound 0.1 µM): > 1000 nM
- IC50 (second compound 0.316 µM): > 1000 nM
- IC50 (second compound 1 µM): > 1000 nM
- viability, T/C [25]: 92.9%
- viability, T/C [26]: 87.8%
- viability, T/C [1]: 80.5%
- viability, T/C [2]: 105%
- viability, T/C [3]: 91.5%
- viability, T/C [4]: 118%
- viability, T/C [27]: 97.7%
- viability, T/C [28]: 98.2%
- viability, T/C [5]: 114%
- viability, T/C [6]: 89.2%
- viability, T/C [7]: 92.1%
- viability, T/C [8]: 106%
- viability, T/C [29]: 77.1%
- viability, T/C [30]: 86.4%
- viability, T/C [9]: 83.5%
- viability, T/C [10]: 76.3%
- viability, T/C [11]: 97.8%
- viability, T/C [12]: 105%
- viability, T/C [31]: 93.4%
- viability, T/C [32]: 77.6%
- viability, T/C [13]: 86.4%
- viability, T/C [14]: 77.3%
- viability, T/C [15]: 89.4%
- viability, T/C [16]: 119%
- viability, T/C [33]: 102%
- viability, T/C [34]: 89%
- viability, T/C [17]: 87.2%
- viability, T/C [18]: 92.4%
- viability, T/C [19]: 90.1%
- viability, T/C [20]: 105%
- viability, T/C [35]: 85.6%
- viability, T/C [36]: 83.7%
- viability, T/C [21]: 90.9%
- viability, T/C [22]: 85.8%
- viability, T/C [23]: 87.2%
- viability, T/C [24]: 96.3%

SMILES: Cn1ncnc1[C@H]1c2n[nH]c(=O)c3cc(F)cc(c23)N[C@@H]1c1ccc(F)cc1 + CC(Nc1ccc2c(c1)OCCn1cc(N3C(=O)OCC3C(F)F)nc1-2)C(N)=O
- IC50 (second compound 0.00316 µM): > 100 nM
- IC50 (second compound 0.01 µM): > 100 nM
- IC50 (second compound 0.0316 µM): > 100 nM
- IC50 (second compound 0.1 µM): > 100 nM
- IC50 (second compound 0.316 µM): > 100 nM
- IC50 (second compound 1 µM): > 100 nM
- viability, T/C (second compound 0.00316 µM, first compound 0.000316 µM): 78.6%
- viability, T/C (second compound 0.00316 µM, first compound 0.001 µM): 115%
- viability, T/C [25]: 96.8%
- viability, T/C [26]: 95.4%
- viability, T/C [1]: 94.8%
- viability, T/C [2]: 82.2%
- viability, T/C (second compound 0.01 µM, first compound 0.000316 µM): 112%
- viability, T/C (second compound 0.01 µM, first compound 0.001 µM): 82.4%
- viability, T/C [27]: 92.9%
- viability, T/C [28]: 90.4%
- viability, T/C [5]: 93.1%
- viability, T/C [6]: 91.5%
- viability, T/C (second compound 0.0316 µM, first compound 0.000316 µM): 96.7%
- viability, T/C (second compound 0.0316 µM, first compound 0.001 µM): 97.1%
- viability, T/C [29]: 101%
- viability, T/C [30]: 81.3%
- viability, T/C [9]: 90.5%
- viability, T/C [10]: 89.5%
- viability, T/C (second compound 0.1 µM, first compound 0.000316 µM): 108%
- viability, T/C (second compound 0.1 µM, first compound 0.001 µM): 89%
- viability, T/C [31]: 81.2%
- viability, T/C [32]: 89.8%
- viability, T/C [13]: 74.4%
- viability, T/C [14]: 84.9%
- viability, T/C (second compound 0.316 µM, first compound 0.000316 µM): 90.7%
- viability, T/C (second compound 0.316 µM, first compound 0.001 µM): 78%
- viability, T/C [33]: 81.9%
- viability, T/C [34]: 98.3%
- viability, T/C [17]: 74.8%
- viability, T/C [18]: 86.1%
- viability, T/C (second compound 1 µM, first compound 0.000316 µM): 91.6%
- viability, T/C (second compound 1 µM, first compound 0.001 µM): 85.3%
- viability, T/C [35]: 90%
- viability, T/C [36]: 86.2%
- viability, T/C [21]: 110%
- viability, T/C [22]: 77.9%
